# Reference: publication PMC12064818, “A general assay platform to study protein pharmacology using ligand-dependent structural dynamics” (Nature Communications, 2025)
# Molecular target: T1, FLuc-C-HiBiT (Photinus pyralis, UniProt P08659)
# T1 construct: firefly luciferase with C-terminal HiBiT tag, E. coli expressed
# Assay: biochemical
# Settings: enzyme activity, 10 uM ATP; read-out: IC50 or SDR50 (mM) / FLuc E
# T1 sequence (P08659 whole entry, looked up): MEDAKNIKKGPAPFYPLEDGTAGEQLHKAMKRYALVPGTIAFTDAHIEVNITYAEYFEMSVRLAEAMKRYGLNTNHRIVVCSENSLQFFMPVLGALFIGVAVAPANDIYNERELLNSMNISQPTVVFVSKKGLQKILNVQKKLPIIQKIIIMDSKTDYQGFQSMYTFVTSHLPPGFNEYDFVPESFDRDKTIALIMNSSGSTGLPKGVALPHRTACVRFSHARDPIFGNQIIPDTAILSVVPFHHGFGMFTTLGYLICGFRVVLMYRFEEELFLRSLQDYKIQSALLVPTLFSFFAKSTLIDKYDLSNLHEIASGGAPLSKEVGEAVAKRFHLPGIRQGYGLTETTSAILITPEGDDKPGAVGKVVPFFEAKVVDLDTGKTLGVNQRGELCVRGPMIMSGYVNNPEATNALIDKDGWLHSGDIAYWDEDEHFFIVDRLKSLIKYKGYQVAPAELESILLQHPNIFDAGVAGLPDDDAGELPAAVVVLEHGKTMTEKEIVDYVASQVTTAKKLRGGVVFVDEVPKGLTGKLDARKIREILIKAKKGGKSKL
row,IC50,SMILES
1,18 µM,COCCN1CCOc2nc(-c3cccc(N(C)C)c3)ncc2C1=O [NCGC00413458-01]
2,> 30 µM,Cc1c(C(=O)Nc2cccc(-c3nc4ccccc4s3)c2)oc2ccccc12 [NCGC00119181-01]
3,0.556 µM,Nc1cccc(-c2ccc(N3CCCCC3)nn2)c1 [NCGC00432709-01]
4,6.24 µM,Cc1cc(C)cc(Nc2nc(-c3ccccc3F)no2)c1 [NCGC00422314-01]
5,9.89 µM,COC(=O)c1ccccc1NC(=O)CCc1c(C)nc2cc(-c3ccc(Cl)cc3)nn2c1C [NCGC00110028-01]
6,11.1 µM,Cc1cc(CNC(=O)CC2C=C[S+](=O)([O-])C2)c2[nH]c(-c3ccccc3)c(C)c2c1 (stereo not shown) [NCGC00441154-01]
7,11.1 µM,CC(Cc1cnccn1)Nc1ccc(-c2nc(-c3cccc(Cl)c3)no2)cn1 (stereo not shown) [NCGC00425352-01]
8,> 30 µM,C=CCNC(=O)c1cccc2c(C)nnn12 [NCGC00477166-01]
9,4.95 µM,CCOc1ccc(Nc2nc(-c3ccccc3)no2)cc1 [NCGC00422297-01]
10,> 30 µM,CC(C)C(=O)Nc1cc(-c2nc3ccccc3s2)ccc1Cl [NCGC00596190-01]
11,9.89 µM,Cc1ccc(-c2cc(C(=O)O)n(C)c2)cc1 [NCGC00432669-01]
12,2.79 µM,c1ccc(-c2noc(-c3ccc(OC4CNC4)cc3)n2)cc1 [NCGC00441173-01]
13,20.2 µM,CC1(NC(=O)C2CC2)CN(Cc2nc(-c3ccccc3)cs2)C1 [NCGC00410376-01]
14,12.4 µM,CCOC(=O)c1ccc(NC2SC(=O)N(Cc3cccc(C(=O)O)c3)C2=O)cc1 (stereo not shown) [NCGC00099894-01]
15,12.4 µM,Cc1ccc(Nc2c(-c3ccc(N(C)C)cc3)nc3[nH]cnn23)cc1 [NCGC00105887-01]
16,7.85 µM,O=C(Nc1c(C(=O)Nc2ccc(F)cc2)oc2ccccc12)c1cc2ccccc2o1 [NCGC00111604-01]
17,18 µM,Cc1nn(-c2ccc(C(C)C)cc2)c(C)c1[C@@H]1C=C[C@@H](NC(=O)Nc2ccccc2)C1 [NCGC00421405-01]
18,0.157 µM,CCOc1cccc2cc(-c3nc4ccc(C(=O)O)cc4[nH]3)c(=O)oc12 [NCGC00138160-01]
19,> 30 µM,CC(C)(C)c1ccc(C(=O)Nc2ccc(C(O)[C@H]3COCC(=O)N3Cc3ccccc3)cc2)cc1 (stereo partly shown) [NCGC00394950-01]
20,> 30 µM,CC(C)c1nc2c(c(-c3ccc(O)cc3)n1)CCN(Cc1ccccn1)CC2 [NCGC00480326-01]
21,11.1 µM,O=C1Nc2ccc(C(=O)c3ccco3)cc2C1=Cc1cc(Cl)c(O)c(Cl)c1 [NCGC00242150-05]
22,8.81 µM,CC1CCCCN1c1csc2ccc(F)cc2c1=O (stereo not shown) [NCGC00132384-01]

row,IC50,SMILES
1,11.1 µM,O=C(Nc1ccc2c(c1)OCCO2)N1CCCC(c2nc(C3CCOCC3)no2)C1 (stereo not shown) [NCGC00475594-01]
2,> 30 µM,O=C(O)C1CN(Cc2ccc(-c3nc4cc(Cc5ccccc5F)ccc4s3)c(F)c2)C1 [NCGC00379113-01]
3,20.2 µM,Cn1ccnc1CN1CCc2nc(C(=O)Nc3ccccc3)oc2CC1 [NCGC00413360-01]
4,6.24 µM,COc1ccc(-c2cc(N3CCCC(NC(=O)c4ccsc4)C3)[nH]n2)cc1 (stereo not shown) [NCGC00437662-01]
5,> 30 µM,CSCc1nc(-c2ccncc2)nn1Cc1ccc2c(c1)OCO2 [NCGC00447092-01]
6,2.21 µM,C[S+](=O)([O-])Nc1ccc(-c2nc3ccccc3s2)cc1 [NCGC00118996-01]
7,14 µM,O=C(c1ccc(CSc2nc3ccncc3n2Cc2ccccc2F)cc1)N1CCCCC1 [NCGC00113496-01]
8,0.313 µM,O=C(O)c1ccc(-c2noc(-c3ccc(C(F)(F)F)cc3)n2)cc1 [NCGC00168758-01]
9,5.56 µM,OC1CCCN(c2ccc(-c3nc(-c4cccc(C(F)(F)F)c4)no3)cn2)C1 (stereo not shown) [NCGC00441254-01]
10,0.0157 µM,COc1ccc2cc(-c3nc4ccc(C(=O)O)cc4[nH]3)c(=O)oc2c1 [NCGC00138156-01]
11,11.1 µM,COc1cccc(CC(=O)NCCn2ccn3nc(-c4ccc(C)c(C)c4)cc3c2=O)c1 [NCGC00457016-01]
12,> 30 µM,CC1CCc2nc3ncn(Cc4ccc(Cl)cc4)c(=O)c3cc2C1 (stereo not shown) [NCGC00132725-01]
13,1.4 µM,CCN(CC)c1cc(CCC(=O)O)ccn1 [NCGC00432823-01]
14,0.7 µM,Cc1ccc(-n2ncc3c(N4CCCCCC4)ncnc32)cc1Cl [NCGC00139187-01]
15,20.2 µM,COc1cccc(-c2csc(CN3CCCC(C)(NC(C)=O)C3)c2)c1 (stereo not shown) [NCGC00410342-01]
16,15.7 µM,CC(=O)N1CCCN(c2ccc(-c3nc(-c4ccccc4F)no3)cn2)CC1 [NCGC00426241-01]
17,0.7 µM,Fc1ccccc1Nc1nc(-c2ccccc2)no1 [NCGC00422293-01]
18,9.89 µM,CC(=O)c1cccc(-c2nc3ccccc3s2)c1 [NCGC00167620-01]
19,16.1 µM,C[S+](=O)([O-])CCn1ncc2cc(OCc3cccc(-c4ccc(F)cc4)c3)ccc21 [NCGC00418040-01]
20,9.89 µM,COc1ccc(-c2cc3c(=O)n(CCNC(=O)c4ccco4)ccn3n2)cc1 [NCGC00456922-01]
21,9.89 µM,COc1ccc2cc(C3CN(C(=O)Cc4ccc(O)cc4)CCO3)ccc2c1 (stereo not shown) [NCGC00430869-01]
22,7.85 µM,CC(C)c1noc(-c2nc(-c3ccc4c(c3)OCO4)no2)n1 [NCGC00450061-01]

row,IC50,SMILES
1,6.24 µM,CCCOc1ccccc1C(=O)Nc1ccc(-c2nc3ccc(C)cc3s2)cc1 [NCGC00103054-01]
2,0.197 µM,O=C(O)c1ccc(-c2noc(-c3ccccc3F)n2)cc1 [NCGC00168096-02]
3,0.197 µM,Cc1ccc(-n2ncc3c(N4CCCCC4)ncnc32)cc1 [NCGC00139024-01]
4,8.81 µM,COc1ccc(OC)c(-c2nc3ccc(OC)cc3s2)c1 [NCGC00167604-01]
5,11.1 µM,Cc1c(C(=O)NCc2cccc(Br)c2)oc2ccc3c(c12)C(=O)CC(C)(C)O3 [NCGC00113428-01]
6,3.6 µM,O=c1c2nc(N3CCC(c4ccccc4)CC3)ccc2ncn1C1CC1 [NCGC00414736-01]
7,5.56 µM,Cc1ccc(-n2ncc3c(N4CCN(C)CC4)ncnc32)cc1 [NCGC00139016-01]
8,11.1 µM,CN(C)c1cccc(C(=O)NC2CCN(c3cc(-c4ccc(Cl)cc4)n[nH]3)C2)c1 (stereo not shown) [NCGC00437918-01]
9,> 30 µM,Cc1ccc(CNC(=O)c2ccc3c(c2)CN(Cc2cnn(C)c2C)CCO3)cc1 [NCGC00426362-01]
10,1.61 µM,COCC(=O)Nc1nc2c(s1)C[C@]1(C)CC[C@@H]3[C@H](OC(=O)[C@H]3C)[C@H]1[C@@H]2C [NCGC00391224-01]
11,4.95 µM,COc1ccccc1-c1noc(-c2ccc(N3CCN(C)CC3)c([N+](=O)[O-])c2)n1 [NCGC00119222-01]
12,> 30 µM,Cc1nn(-c2ccc(C(C)C)cc2)c(C)c1[C@@H]1C=C[C@@H](NC(=O)CC2(CC(=O)O)CCCC2)C1 [NCGC00421413-01]
13,11.1 µM,COc1ccc(-c2cc3nc4c(c(=O)n3[nH]2)CN(C(=O)NCc2ccco2)CC4)cc1 [NCGC00440289-01]
14,> 30 µM,Nc1nn(-c2ccccc2)nc1C(=O)OCc1ccccc1 [NCGC00102837-01]
15,7 µM,CC(=O)Nc1cc(-c2nc3ccccc3s2)ccc1C [NCGC00098099-01]
16,> 30 µM,Nc1nc(=O)c2[nH]c(=O)n(C3OC(CO)C(O)C3O)c2[nH]1 (stereo not shown) [NCGC00390457-01]
17,12.4 µM,O=C(O)COCC(=O)N[C@H]1CCN2C(=O)c3cc(/C=C/c4ccccc4)ccc3NC(=O)[C@H]12 [NCGC00395144-01]
18,0.394 µM,CCC(=O)Nc1cc2nn(-c3ccc(C)cc3)nc2cc1C [NCGC00098511-01]
19,7 µM,Cc1c(NC(=O)c2ccc(I)o2)cccc1-c1nc2ccccc2s1 [NCGC00595010-01]
20,11.1 µM,Cc1ccn2c(Nc3ccc(C(C)C)cc3)c(-c3cccs3)nc2c1 [NCGC00106676-01]
21,6.24 µM,COc1cccc(-c2noc(Nc3ccc4c(c3)OCO4)n2)c1 [NCGC00422370-01]
22,11.1 µM,COc1ccc(C(=O)N2CCCC(c3nc(-c4ccccc4)no3)CCNC(=O)CC2)c(OC)n1 (stereo not shown) [NCGC00465834-01]

row,IC50,SMILES
1,0.989 µM,Clc1cccc(-c2nc(-c3ccccn3)no2)c1 [NCGC00035901-01]
2,9.89 µM,Cc1c(N[S+](C)(=O)[O-])cccc1-c1nc2ccccc2s1 [NCGC00118990-01]
3,9.89 µM,CN1CCCN(C(=O)Nc2ccc3c(c2)OCCO3)c2ccccc21 [NCGC00470832-01]
4,7.85 µM,COc1cccc(CNc2nc3ccccc3c3nc(-c4cccc(C)c4)nn23)c1 [NCGC00112594-01]
5,12.4 µM,O=C(N1c2ccccc2CC1c1noc(C2CCOCC2)n1)C1(c2ccccc2)CC1 (stereo not shown) [NCGC00471505-01]
6,0.556 µM,O=[S+]([O-])(c1cccc(C(F)(F)F)c1)n1c(/C=C/c2ccccc2)nc2ccccc21 [NCGC00139418-01]
7,0.624 µM,Cc1ccc(CSc2nc3cccnc3n2Cc2ccc(C(=O)NCc3ccco3)cc2)cc1 [NCGC00123842-01]
8,> 30 µM,O=C(Nc1ccc(-c2nc3ccccc3s2)c(O)c1)c1ccccc1 [NCGC00594711-01]
9,7 µM,Cc1cccn2c(=O)c(C(=O)NCCc3ccccc3)cnc12 [NCGC00137532-01]
10,20.2 µM,Cc1nn(-c2ccc(C(C)(C)C)cc2)c(C)c1[C@@H]1C=C[C@@H](NC(=O)c2ccco2)C1 [NCGC00394638-01]
11,> 30 µM,Cc1ccc(-c2ncc3c(n2)OCCN(Cc2ccc(F)cc2F)C3=O)cc1 [NCGC00413538-01]
12,0.881 µM,Cc1ccccc1CCNC(=O)c1ccc2c(c1)nc1n2CCCCC1 [NCGC00133334-01]
13,9.89 µM,O=C(Nc1ccc2c(c1)OCCO2)N1CC(c2nc(CCOCC3CC3)no2)C1 [NCGC00464361-01]
14,7.85 µM,CCOc1ccc(C(=O)Nc2cc(-c3nc4cc(OC)ccc4o3)ccc2C)cc1[N+](=O)[O-] [NCGC00103318-01]
15,11.1 µM,CCCC(=O)N1CCN(c2nc3ccc(F)cc3s2)CC1 [NCGC00137065-01]
16,16.1 µM,COc1ccc(-c2cc3c(cn2)CN(Cc2ccncc2)CCN3)cc1 [NCGC00411159-01]
17,0.0351 µM,CCc1ccc2nc(N3CCC(C(=O)O)CC3)sc2c1 [NCGC00112332-01]
18,1.4 µM,Cc1ccc(C(=O)Nc2ccc3oc(-c4cccnc4)nc3c2)c(Cl)c1 [NCGC00099674-01]
19,8.81 µM,Cc1ccc(CN2C(=O)OC(c3cccc(NC(=O)c4ccc(C)cc4)c3)C2C(=O)NCC(C)C)cc1 (stereo not shown) [NCGC00475004-01]
